Consider one compound from US20020161052A1, “Terminally-branched polymeric linkers and polymeric conjugates containing the same” (priority 2001, published 2002).

A word on the IC50: it is the concentration at which inhibition is half-maximal. Low readings indicate inhibition by little substance, high ones a need for much substance.

Experiment [1] relates to P388/O (murine lymphoid neoplasm) cell line. Description: In vitro bioassay, cell growth by Alamar Blue. Type of experiment: cell-based. Conditions: Mus musculus, 72 h; P388/O cells, three days, 37° C., in duplicate; SD ± 10%. As to the method:
A series of in vitro assays were conducted to determine the IC50 for unmodified Ara-C and compound 10 using the P388/O (murine lymphoid neoplasm, Southern Research Institute) cell line. The P388/0 cells were grown in RPMI 1640 medium (Whittaker Bioproducts, Walkersville, Md.) +10% FBS (Hyclone Inc., Logan UT). Bioassays were performed in their respective media containing antibiotics and fungizone.
Ara-C was dissolved in DMSO and diluted to the appropriate concentration in culture media. The PEG-Ara-C compounds were dissolved in water and diluted to the appropriate concentrations in culture media.
The assays were performed in duplicate in 96-well microtiter cell culture plates. Two fold serial dilution of the compounds were done in the microtiter plates. Cells were detached by incubating with 0.1% Trypsin/Versene at 37°. Trypsin was inactivated by adding the appropriate media for each cell line containing 10% FBS. To each well of the microtiter plates, 10,000 cells were added. After three days, cell growth was measured by addition of a metabolic indicator dye, Alamar Blue, according to the manufacturer's protocol. The IC50 value for the test compounds and reference compound are provided above in the Table.

Another experiment has as its system LX-1. Description: LX-1 subcutaneous tumor in athymic nude mice. Conditions: 100 mg/kg, i.v. q3d×4, athymic nude mice; mean baseline tumor volume 1000 mm^3. Type of experiment: in vivo.

Method for LX-1: Athymic nude mice were implanted subcutaneous with a 4-5 mm^3 tissue fragment of LX-1 collected from donor mice. The tumor trocar site was observed twice weekly and measured once palpable. The tumor volume for each mouse was determined by measuring two dimensions with calipers and calculated using the formula: tumor volume=(length×width^2)/2. […] The mice were sorted to evenly distribute tumor size, grouped into 4 to 6 mice/group, and ear punched for permanent identification. Drugs were administered intravenously q3d×4 (Day 1, 4, 7 and 10) via the tail vein at an approximate rate of 0.5 mL per minute.

Consider `Nc1ccn([C@@H]2O[C@H](CO)[C@@H](O)[C@@H]2O)c(=O)n1` [Ara-C, cytosine arabinoside], for which half-maximal inhibition in experiment [1] (IC50) required 10 nM. Also, the “LX-1 % T/C” value in the experiment on LX-1 amounted to 74.0%.
